“And” between values parts separate entries of the source, which are not always exact repeats. Equal entries are not always repeated. Where two headings read alike, the source gives them in different places. Marks after values point to notes of the source that are not given here.
Legend:
[1] = tested on: T1, Human Hsp90α; assay: Differential scanning fluorimetry (DSF) thermal shift, human Hsp90α NTD; format: binding; details: inhibitor 25 µM
T1 construct: The NTDs from TbHsp83 as well as human Hsp90s α and β
Procedure: (§1) DSF screening was carried out using a LightCycler 480 Real Time PCR System (Roche Applied Science, Quebec, Canada). The NTDs from TbHsp83 as well as human Hsp90s α and β were buffered in 100 mM hepes pH 7.5, 150 mM NaCl and assayed in a 384-well format. The final concentration of the protein sample was optimized between 0.05 and 0.2 mg/ml for each NTD (concentration selected based on pre-testing results to avoid saturation of the fluorescence detector). […] The recorded fluorescence reads were fitted to the Boltzmann sigmoid function using Bioactive software (Harbinger Biotechnology and Engineering Corp., Ontario, Canada). The inflection point of each fitted curve is defined as the melting temperature (T m). […] Thermal shifts above 2°C were considered significant.

[2] = tested on: T2, Human Hsp90β; assay: Differential scanning fluorimetry (DSF) thermal shift, human Hsp90β NTD; format: binding; details: inhibitor 25 µM
T2 construct: The NTDs from TbHsp83 as well as human Hsp90s α and β
Procedure: as §1

[3] = molecular target: T2, Human Hsp90β; details: read-out: K d (previous ITC measurements); cited from earlier work
[4] = molecular target: Human TRAP-1; details: read-out: K d (previous ITC measurements); cited from earlier work
[5] = molecular target: T3, TbHsp83 NTD (Trypanosoma brucei brucei, UniProt P12861); format: binding; details: TbHsp83 NTD, inhibitor 25 µM, shifts above 2°C considered significant
T3 sequence (P12861 1-213): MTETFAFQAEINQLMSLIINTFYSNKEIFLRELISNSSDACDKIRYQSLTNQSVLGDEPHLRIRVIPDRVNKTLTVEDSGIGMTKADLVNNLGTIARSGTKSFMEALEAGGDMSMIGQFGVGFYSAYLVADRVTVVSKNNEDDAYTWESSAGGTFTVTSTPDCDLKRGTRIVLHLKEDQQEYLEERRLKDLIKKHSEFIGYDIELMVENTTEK
Procedure: as §1

[6] = tested on: T. brucei 427; assay: Parasite growth inhibition assay; format: cell-based; details: Trypanosoma brucei
Procedure: Assay conditions for T. brucei 427 cell based assay were followed as previously reported in the literature.
Several of the compounds characterized using DSF and ITC assays were evaluated for their ability to kill T. brucei in a continuous in vitro culture system.

[7] = tested on: Trypanosoma brucei; design: method as in PMID 23630365; details: cited from earlier work
[8] = molecular target: T3, TbHsp83 NTD; assay: biochemical; format: binding
[9] = tested on: TbHsp83 NTD; format: binding; details: DSF comparison of TbHsp83, Hsp90α and Hsp90β
Procedure: as §1

[10] = molecular target: Yeast Hsp83; details: read-out: K d (previous ITC measurements); cited from earlier work
[11] = tested on: Plasmodium; design: method as in PMID 12584193; details: cited from earlier work
[12] = blood stream stage T. brucei 427, in vitro culture, read-out: EC50
[13] = ITC, 20°C, TbHsp83 NTD, read-out: K d

Row | Compound | ΔT m [1] | ΔT m [2] | ΔT m [5] [°C] | Kd [8, 13] | further results
1 | Nc1ncnc2c1ncn2[C@@H]1O[C@H](COP(=O)(O)OP(=O)(O)O)[C@@H](O)[C@H]1O [ADP] | 0.3^a °C | 0.5^b °C | 0.1 |  | Kd [3]: 15000 nM; Kd [4]: 35000 nM
2 | CC(=O)c1ccc(N2C3CCC2CC(NC(=O)c2ccc(C(N)=O)c(NC4CCC(O)CC4)c2)C3)nc1 (stereo not drawn) [Compound 6, N4-[8-(5-acetylpyridin-2-yl)-8-azabicyclo[3.2.1]oct-3-endo-yl]-2-[(trans-4-hydroxycyclohexyl)amino]benzene-1,4-dicarboxamide] | 8.5 °C | 4.9 °C | 10.4 |  | EC50 [6, 12]: 220 nM
3 | C=CCNC1=C2C[C@@H](C)C[C@H](OC)[C@H](O)[C@@H](C)/C=C(\C)[C@H](OC(N)=O)[C@@H](OC)/C=C\C=C(/C)C(=O)NC(=CC1=O)C2=O [Compound 17-AAG-GA, 17-AAG-GA] | 3.1 °C | 1.6 °C | 10.7 |  | EC50 [7]: 38 nM
4 | CCNC(=O)c1noc(-c2cc(C(C)C)c(O)cc2O)c1-c1ccc(CN2CCOCC2)cc1 [NVP-AUY922] | 22.3 °C | 19.6 °C | 18.5 | 3 nM | binding preference TbHsp83 vs human Hsp90 [9]: stronger affinity for human Hsp90
5 | C[C@@H]1C[C@H]2O[C@@H]2/C=C\C=C\C(=O)Cc2c(Cl)c(O)cc(O)c2C(=O)O1 [Radicicol] | 18.8 °C | 15.6 °C | 6.5 |  | Kd [10]: 16 nM; Kd [4]: 25 nM; binding preference TbHsp83 vs human Hsp90 [9]: stronger affinity for human Hsp90; EC50 [7]: 70 nM
6 | CSCCNc1cc(-n2nc(C(F)(F)F)c3c2CC(C)(C)CC3=O)ccc1C(N)=O [Compound 5, 4-(6,6-dimethyl-4-oxo-3-(trifluoromethyl)-4,5,6,7-tetrahydro-1H-indazol-1-yl)-2-((2-(methylthio)ethyl)amino)benzamide] | 2.3 °C | 0.4 °C | 12.03 | 794 nM | EC50 [6, 12]: 130 nM; binding preference TbHsp83 vs human Hsp90 [9]: preferentially binds TbHsp83; binding preference TbHsp83 vs human Hsp90 ([9]; listed as compound 5): markedly stronger binding to TbHsp83
7 | COC1=C2C[C@@H](C)C[C@H](OC)[C@H](O)[C@@H](C)/C=C(\C)[C@H](OC(N)=O)[C@@H](OC)/C=C\C=C(/C)C(=O)NC(=CC1=O)C2=O [Geldanamycin] |  |  | 14.8 |  | Kd [10]: 2900 nM; concentration inhibiting parasite growth [11]: sub-micromolar; Kd ([8]; K d, ITC, 20°C, TbHsp83 NTD): 1000 nM; EC50 [7]: 13 nM
8 | CCc1cc(-c2n[nH]c(C)c2-c2ccc3c(c2)OCCO3)c(O)cc1O [CCT018159] | 12.1 °C | 7.5 °C | 8.01 | 4980 nM | 
9 | CO[C@H]1/C=C\C=C(/C)C(=O)NC2=CC(=O)C(NCCN3CCCC3)=C(C[C@@H](C)C[C@H](OC)[C@H](O)[C@@H](C)/C=C(\C)[C@@H]1OC(N)=O)C2=O [Compound 17-AEP-GA, 17-AEP-GA] | 5.1 °C | 4.2 °C | 13.8 | 714 nM | 
10 | AMPPSP |  |  |  |  | Kd [4]: 109000 nM
11 | CC1(C)CC(=O)c2c(C(F)(F)F)nn(-c3ccc(C(N)=O)c(N[C@H]4CC[C@H](O)CC4)c3)c2C1 [Compound 4, 4-[6,6-dimethyl-4-oxo-3-(trifluoromethyl)-4,5,6,7-tetrahydro-1H-indazol-1-yl]-2-[(trans-4-hydroxycyclohexyl)amino]benzamide] |  |  | 15.5 | 3 nM | EC50 [6, 12]: 100 nM; Kd ([8]; ITC, read-out: K d): 2.8 nM
12 | Nc1ncnc2c1ncn2[C@@H]1O[C@H](COP(=O)(O)OP(=O)(O)NP(=O)(O)O)[C@@H](O)[C@H]1O [AMPPNP] |  |  | 0.3 |  | Kd [10]: 111000 nM; Kd [3]: 141000 nM
13 | CO[C@H]1/C=C\C=C(/C)C(=O)NC2=CC(=O)C(NCCN(C)C)=C(C[C@@H](C)C[C@H](OC)[C@H](O)[C@@H](C)/C=C(\C)[C@@H]1OC(N)=O)C2=O [Compound 17-DAMG-GA, 17-DAMG-GA] | 5.5 °C | 3.9 °C | 11.7 |  | Kd [3]: 350 nM; EC50 [7]: 3 nM
14 | CO[C@H]1[C@@H](OC)C[C@H](C)[C@@H](OC)C2=CC(=O)C=C(NC(=O)/C(C)=C/C=C\[C@H](C)[C@@H](OC(N)=O)/C(C)=C/[C@@H]1C)C2=O [Macbecin I] | 10.2 °C | 8.6 °C | 16.9 |  | Kd [10]: 240 nM; fold higher affinity of T. brucei Hsp83 compared to K d reported for yeast counterpart ([8]; ITC K d vs yeast value of ref 45): 2.5 fold; Kd ([8]; K d, ITC, 20°C, TbHsp83 NTD): 93 nM; binding preference TbHsp83 vs human Hsp90 [9]: markedly stronger binding to TbHsp83
15 | COc1c(C)cnc(Cn2cnc3c(Cl)nc(N)nc32)c1C [Compound 1, 6-chloro-9-(4-methoxy-3,-dimethylpyridin-2-ylmethyl)-9H-purin-2-ylamine] |  | 8.7 °C | 10.5 |  | EC50 [6, 12]: 310 nM; Kd ([8]; K d, ITC, 20°C, TbHsp83 NTD): 9 nM
16 | Oc1cc(O)c(-c2noc3ccc(NCCN4CCOCC4)cc23)cc1Cl [CAY10607] | 15.3 °C | 12.1 °C | 13.3 | 10 nM | 
17 | CCNC(=O)c1cc2c(-c3cc(OCCN(CC)CC)c(Cl)cc3Cl)nc(N)nc2s1 [Compound 3, 2-amino-4-[2,4-dichloro-5-(2-diethylaminoethoxy)phenyl]thiopheno[2,3-d]pyrimidine-6-carboxylic acid ethylamide] | 14.7 °C | 12.9 °C | 12.7 | 26 nM | EC50 [6]: 210 nM
18 | CCC(C)n1c(Cc2cc(OC)ccc2OC)nc2c(N)nc(C)nc21 (stereo not shown) [Compound 2, 9-(sec-butyl)-8-(2,5-dimethoxybenzyl)-2-methyl-9H-purin-6-amine] | 1.2 °C | −0.5 °C | 0.8 | 9300 nM and 9260 nM | EC50 [6, 12]: 13000 nM; K d ([8]; ITC, 20°C, TbHsp83 NTD): lowest affinity measured by ITC; ΔT m ([5]; listed as compound 2): non-significant
